Patent publication US6465527B1, “Iodinated hydrocarbon pesticide” (priority 1999, dated 2002)
Read-outs that look alike come from different tables or passages of the source.

Experiments:
[1] = test system: German cockroach, Blattella germanica (L.); test: Fumigant toxicity in sealed glass jar, German cockroach; type: in vivo; settings: Blattella germanica, inhaled or nasal, 30-60 adult males
Experimental: (§1) As shown below, Table 1 depicts the toxicity of both monoiodinated and diiodinated hydrocarbons to both the German and the American cockroach after 1 hour of exposure.
(§2) Shown in Table 2 is the toxicity of both monoiodinated and diiodinated hydrocarbons to the German and American cockroach and the Cowpea weevil after 24 hours of exposure.
(§3) In this experiment both the insecticidal and nematicidal properties of iodinated hydrocarbons were compared. In determining the insecticidal properties of the iodinated hydrocarbons, both American (Periplaneta americana) and German (Blattella germanica) cockroaches were used. Groups of cockroaches were confined in 0.95-liter glass jars with a small cotton ball. Exactly 50 μl of a test chemical was applied to the cotton ball and the jar was sealed. Knockdown, defined as the inability to walk in a coordinated manner, and mortality were assessed every 15 minutes for the first hour and hourly thereafter for 8 hours and again after 24 hours.

[2] = test system: American cockroach, Periplaneta americana (L.); test: Fumigant toxicity in sealed glass jar, American cockroach; type: in vivo; settings: Periplaneta americana, inhaled or nasal, 8-36 adult males
Experimental: as §1, §2, §3

[3] = test system: Cowpea weevil, Callosobruchus maculatus (F.); test: Fumigant toxicity, Cowpea weevil; type: in vivo; parameters: concentration or dose not given beside the values; settings: 30 adults
Experimental: as §2

[4] = test system: American (Periplaneta americana) and German (Blattella germanica) cockroaches; test: Knockdown and mortality of cockroaches in sealed jar (both species); type: in vivo; settings: 50 μl on cotton ball in sealed 0.95-liter jar; for Knockdown of cockroaches: within 1 hour after treatment
Experimental: as §3, with “sealed.” for “sealed. Knockdown, defined as the inability to walk in a coordinated manner, and mortality were assessed every 15 minutes for the first hour and hourly thereafter for 8 hours and again after 24 hours.”

[5] = test system: cyst [Heterodera glycines]; test: Greenhouse nematicide test, iodinated C1-C3 hydrocarbons (Experiment 4); type: in vivo
Experimental: (§4) In this experiment, the nematicidal properties of low molecular weight iodinated hydrocarbons were investigated. The nematicidal properties of iodinated C1-C3 hydrocarbons were evaluated in greenhouse experiments with field soil infested with root-knot [Meloidogyne arenaria] and cyst [Heterodera glycines] nematodes. lodomethane, di-iodomethane, iodoethane, di-iodoethane, and 1-iodopropane were added to soil at rates of 0.1, 0.2 and 0.4 ml/kg soil.
(§5) The treated soil was kept moist for 10 days when soil samples were taken for nematode analysis and ‘Brim’ soybean [Glycine max] planted. Soybeans were allowed to grow for 8 weeks and then were removed from the soil to determine plant growth, root-knot indices and the number of galls generated by M arenaria. […] All compounds except 1-iodopropane increased fresh shoot weight when applied at ≧0.1 ml/kg soil.

[6] = test system: root-knot [Meloidogyne arenaria]; test: as above; type: in vivo
Experimental: as §4, §5

Meloidogyne arenaria [7] = test: Greenhouse nematicide test, iodomethane vs ethylene diiodide (Experiment 5); type: in vivo
Experimental: (§6) In this experiment, the nematotoxic properties of ethylene diiodide were compared to that of methyl iodide. The nematicidal efficacies of iodomethane [IM] and ethylene diiodide [EDI] were compared in a greenhouse experiment using field soil infested with Meloidogyne arenaria, Pratylenchus brachyurus, and Paratrichodorus christiei.
(§7) Each compound was added to soil at rates of 100, 200, 300 and 400 mg s/kg of soil. The soil was potted and kept moist for two weeks when it was planted with ‘Brim’ soybean after taking samples for nematological analyses. After eight weeks of growth, the plants were removed from the pots and soil samples taken. Data was collected on weights of fresh roots and shoots, general appearance of roots [root condition index] and root gall formation by M. arenaria. All EDI rates eliminated M. arenaria juveniles [J2] and populations of the other nematodes in the preplant samples; IM reduced J2 numbers by 50-70%, eliminated P. christiei with the 400 mg rate, but had no effect on P. brachyurus. […] The general appearance of roots was improved by EDI at rates ≦300 mg, but MI had no effect on the variable. […] M. arenaria J2 populations in roots were reduced by 60-70% by MI treatments, but the compound had no effect on root populations of P. brachyurus. MI had no effect on J2 populations in the final soil samples, although it suppressed P. christiei, by 50-70%.

[8] = test system: Paratrichodorus christiei; test: as above; type: in vivo
Experimental: as §6, §7

Pratylenchus brachyurus = test: as above; type: in vivo
Experimental: as §6, §7

'Brim' soybean = test: Soybean growth and root condition in treated soil (Experiment 5); type: in vivo; settings: rates 100-400 mg/kg
Experimental: as §6, §7

[9] = test system: reniform nematode [Rotylenchulus reniformis]; test: Greenhouse nematicide test in cotton field soil, covered and uncovered pots (Experiment 6, FIGS. 1-4); type: in vivo; settings: for Control of the nematode in soil: covered and uncovered, all rates up to 12 mg per kg of soil
Source text: FIGS. 2 and 3 illustrate the effectiveness of the diiodoethane and diiodopropane in eliminating the nematode (Rotylenchulus reniformis) from a soil sample. The “x” axis on the top row illustrates the quantity of iodinated hydrocarbon in milligrams per kilogram of soil. The next two rows below the “x” axis indicate the number of nematodes per 100 milliliters of soil, which is also indicated on the “y” axis. In FIG. 2, 1,2-diiodoethane was applied to the soil both in a covered state and an uncovered state. […] This is believed to be so because of the volatility of 1,2 diiodoethane, wherein the cover slows down the rate at which the compound evaporates into the atmosphere.
In this experiment, the pesticidal and herbicidal properties of volatile, low molecular weight, iodinated hydrocarbons were investigated. The relative nematicidal efficacy of iodomethane [C1], 1,2-diiodoethane [C2], 1,3-diiodopropane [C3] and 1,4-diiodobutane [C4] was studied in greenhouse experiments with soil from a cotton field infested with the reniform nematode [Rotylenchulus reniformis]. The chemicals were obtained from Aldrich, Milwaukee, U.S.A. Emulsifiable concentrates of the compounds were prepared by dilution in acetone containing an emulsogen.
(§8) For each chemical, an aqueous emulsion with 0.2% [w/w] of the compound was prepared and was applied to soil at rates of 2, 4, 6, 8, 10, and 12 mgs a.i./Kg soil. The treated soil was mixed and transferred to 1L capacity 10-cm diameter cylindrical pots. Pots with untreated soil [control] and with treated soil were placed on a greenhouse bench in a randomized complete block design. Each treatment was represented by 14 replications [pots], one half of which were left uncovered, and the other 7 were covered with polyethylene plastic bags [approx. 1 mil thickness] retained with a rubber around the pots. Soil samples for nematological analysis [salad bowl incubation technique] were collected 7-10 days after application of the materials. […] In covered pots, applications of the material were particularly effective resulting in 100% kill with the 10 and 12 mg rates. All dosages of C3 and C4 eliminated the nematode in covered pots. […] In a greenhouse experiment of similar design to the nematicide experiments, the C3 and C4 emulsions were applied at rates of 2-20 mgs a.i./Kg soil to a soil infested with crabgrass [Digitaria sanguinalis], purple nutsedge [Cyperus rotundus], Jimson weed [Datura stramonium] and a variety of other weed species. All pots were covered, and the number of weeds were counted 7, 14 and 30 days after application of the chemicals.

Heterodera glycines = test: Greenhouse nematicide test, diiodinated C2-C8 hydrocarbons in infested field soil (Experiments 1 and 2); type: in vivo; settings: rates ≧5.0 mg
Experimental: (§9) Additionally, the nematicidal properties of iodinated hydrocarbons were investigated in greenhouse experiments with field soil infested with Meloidogyne arenaria and Heterodera Glycines. Chemicals were added directly to infested solid at rates <100 mg/Kg soil. Treated soil was kept moist (approximately 60 percent field capacity) and uncovered for 7-10 days when samples were collected, and the pots were planted with ‘Brim’ soybean, Glycine max. […] 1,2-diiodoethane (C2), 1,3-diiodopropane (C3), 1,4-diiodobutane (C4), 1,5-diiodopentane (C5), 1,6-diiodohexane (C6), and […] were applied to soil rates of 2.5, 5.0, 7.5, and 10 mg/Kg soil. All rates of C2 and C8 were ineffective in reducing M. arenaria juvenile (J2) populations in preplant samples. This was also true for C2 and J2 populations of H. glycines; however, […] rates ≧5.0 mg suppressed J2 populations of H. glycines. […] H. glycines J2 numbers in final soil samples were generally inversely related to rates for C3-C8. […] Applications of C3-C6 to soil increased shoot weights in a manner directly related to dosages but only in a curvilinear pattern.
(§10) In this experiment, the nematicidal properties of various diiodinated hydrocarbons were compared. The nematicidal properties of diiodinated C2-C8 normal hydrocarbons was assessed in a greenhouse experiment with field soil infested with Meloidogyne arenaria [Ma] and Heterodera glycines [Hg]. 1,2-diiodoethane [C2], 1,3-diiodopropane [C3], 1,4-diiodobutane [C4], 1.5-diiodopentane [C5], 1,6-diiodohexane [C6] and 1,8-diiodooctane [C8] were applied to soil at rates of 2.5, 5.0, 7.5, and 10.0 mgs/kg soil. The potted soil was kept moist in a greenhouse for 10 days when preplant samples were collected for analysis, and the pots were planted with ‘Brim’ soybean [Glycine max]. After 7 weeks of growth, the plants were removed and final soil samples taken. Data was collected on weights of fresh roots and shoots, root galling by Ma, and numbers of nematodes in soil and roots. All rates of C2 and C8 were ineffective in reducing Ma juvenile [J2] populations in the preplant samples. This was also true for C2 and J2 populations of Hg; however, C8 rates ≧5.0 mg suppressed J2 populations of Hg. […] Hg J2 numbers in final soil samples were generally inversely related to rates for C3-C8. This pattern of suppression in J2 numbers was also applicable to Ma in the final soil samples but only for C3-C6. […] Applications of C3-C6 to soil increased shoot weights in a manner directly related to dosages but non-linear in pattern.

Meloidogyne arenaria [10] = test: as above; type: in vivo; settings: rates ≧5.0 mg
Experimental: as §9, §10

[11] = test system: crabgrass [Digitaria sanguinalis], purple nutsedge [Cyperus rotundus], Jimson weed [Datura stramonium] and a variety of other weed species; test: Greenhouse herbicide test in weed-infested potted soil (Experiment 6, FIG. 6); type: in vivo; settings: up to 20 mg per kg of soil; one week
Experimental: Illustrated in FIGS. 6 and 7 are the herbicidal properties of the present invention. In FIG. 6, 1,3-diiodopropane and 1,4-diiodobutane were added to a soil sample contained in a pot, wherein the number of weeds were counted at the end of a one week period. The top row of the “x” axis plots the amount in milligrams of iodinated hydrocarbon added per kilogram of soil. The two rows below the top row depict the number of weeds found after a week, which is also plotted on the “y” axis. […] It is inferred that greater dosages would eliminate an even greater number of weeds. FIG. 7 depicts similar results except that the weed controlled was only one variety: crabgrass. […] It is also inferred that dosages larger than 20 mg of iodinated hydrocarbons would further eliminate an even greater number of crabgrass plants.
as §8

[12] = test system: German cockroach, Blattella germanica (L.); test: Fumigant toxicity in sealed glass jar, German cockroach; settings: in vivo
[13] = 1 h exposure, read-out: % Mortality after 1 h exposure, German cockroach
[14] = 24 h exposure, read-out: % Mortality after 24 h exposure, German cockroach
[15] = 1 h exposure, read-out: % Mortality after 1 h exposure, American cockroach
[16] = 24 h exposure, read-out: % Mortality after 24 h exposure, American cockroach

## CI [iodomethane, reference compound]
[1]; [13]
  mortality at 50 µL/jar: 100%
[1]; [14]
  mortality at 50 µL/jar: 100%
[2]; [15]
  mortality at 50 µL/jar: 100%
[2]; [16]
  mortality at 50 µL/jar: 100%
[3]
  % Mortality after 24 h exposure, Cowpea weevil: 100%
[4]
  Knockdown of cockroaches: 100%
[5]; 0.4 ml rate
  H. glycines J2 populations in soil: reduced
[5]; rates lower than 0.4 ml
  H. glycines J2 populations in soil: ineffective
[6]; 0.4 ml rate
  Root-knot nematode juveniles in soil: eliminated
[6]; applied at ≧0.2 ml/kg soil
  Gall formation by M. arenaria: Significant suppression
[6]; rates lower than 0.4 ml
  Root-knot nematode juveniles in soil: ineffective
Meloidogyne arenaria [7]; after eight weeks of growth
  Reduction of M. arenaria J2 populations in roots: 60-70%
Meloidogyne arenaria [7]; final soil samples
  J2 populations in the final soil samples: no effect
Meloidogyne arenaria [7]; rates 100-400 mg/kg of soil
  Reduction of M. arenaria J2 numbers in preplant samples: 50-70%
Meloidogyne arenaria [7]; soybean after eight weeks
  Galls in roots of plants from treated soil (M. arenaria): significant numbers
[8]; 400 mg rate
  P. christiei populations in preplant samples: eliminated
[8]; final soil samples
  Suppression of P. christiei in final soil samples: 50-70%
Pratylenchus brachyurus; after eight weeks of growth
  Root populations of P. brachyurus: no effect
Pratylenchus brachyurus; rates 100-400 mg/kg of soil
  P. brachyurus populations in preplant samples: no effect
'Brim' soybean
  General appearance of roots [root condition index]: no effect
[9]; listed as C1
  Control of the nematode in soil: failed to control
[9]; listed as methyl iodide
  Control of the nematode in soil: ineffective

## ICCCCI [1,4-diiodobutane]
[1]; [13]
  mortality at 50 µL/jar: 0%
[1]; [14]
  mortality at 50 µL/jar: 70%
[2]; [15]
  mortality at 50 µL/jar: 0%
[2]; [16]
  mortality at 50 µL/jar: 33%
[3]
  % Mortality after 24 h exposure, Cowpea weevil: 47%
Heterodera glycines
  H. glycines J2 populations in preplant samples: virtually eliminated
Meloidogyne arenaria [10]
  M. arenaria J2 populations in preplant samples: virtually eliminated
[9]; covered pots, all dosages (2-12 mgs a.i./Kg soil)
  Nematode in soil, covered pots: eliminated
[9]; uncovered and covered state
  Dose that eliminates the nematodes: about 10 mg per kg of soil
[9]; uncovered pots, 3 highest rates
  Mortality of the nematode: 100%
[11]
  Number of weeds found in the pots as the dosage is increased (FIG. 6): steady decline
[12]
  Repellency to German cockroaches: repellent

## ICI [diiodomethane]
[1]; [13]
  mortality at 50 µL/jar: 40%
[1]; [14]
  mortality at 50 µL/jar: 100%
[2]; [15]
  mortality at 50 µL/jar: 39%
[2]; [16]
  mortality at 50 µL/jar: 100%
[3]
  % Mortality after 24 h exposure, Cowpea weevil: 100%
[4]
  Time to 100 percent mortality of cockroaches: ≤ 4 h
  Knockdown of cockroaches: ≈ 40%
[5]; 10 days after application, all dosages (0.1, 0.2, 0.4 ml/kg soil)
  H. glycines J2 populations in soil: eliminated
[12]
  Repellency to German cockroaches: repellent
